Patent US6984756B2, “Process for preparing biphenyl compounds” (Eli Lilly and Company, priority 2000, dated 2006)

Key:
[1] = solubility in organic solvents relative to compound of formula I; assay type: physicochemical
Source text: In Scheme III above, the compound of formula I may be contaminated with achiral dimer, (methylsulfonyl){2-[4-(4-{2-[(methylsulfonyl)amino]ethyl}phenyl)phenyl]ethyl}amine and chiral dimer, ((2R)-2-{4-[4-((1R)-1-methyl-2-{[(methylethyl)sulfonyl]amino}ethyl)phenyl]phenyl}propyl)[(methylethyl)sulfonyl]amine. […] However, the above achiral dimer is less soluble in organic solvents than the compound of formula I therefore, generally resisted removal from the compound of formula I by recrystallization.

water solubility = assay type: physicochemical

Row | SMILES | solubility in organic solvents compared with the compound of formula I [1] | water solubility (water solubility)
1 | CS(=O)(=O)NCCc1ccc(-c2ccc(CCNS(C)(=O)=O)cc2)cc1 [achiral dimer, (methylsulfonyl){2-[4-(4-{2-[(methylsulfonyl)amino]ethyl}phenyl)phenyl]ethyl}amine] | less soluble | –
2 | CC(C)S(=O)(=O)NC[C@H](C)c1ccc(-c2ccc(CCNS(C)(=O)=O)cc2)cc1 [compound of formula I, {(2R)-2-[4-(4-{2-[(methylsulfonyl)amino]ethyl}phenyl)phenyl]propyl}[(methylethyl)sulfonyl]amine] | – | poor
3 | CC(C)S(=O)(=O)NC[C@H](C)c1ccc(-c2ccc([C@@H](C)CNS(=O)(=O)C(C)C)cc2)cc1 [chiral dimer, ((2R)-2-{4-[4-((1R)-1-methyl-2-{[(methylethyl)sulfonyl]amino}ethyl)phenyl]phenyl}propyl)[(methylethyl)sulfonyl]amine] | more soluble | –
